Results from DBAASP.
Converted amounts (≈) assume the structure as drawn.

What was measured:
Assay in all cases: ≥ marks a high value that may be exact or a test limit, other limits are often not marked, values filed in µg/mL are converted to µM
[1] = system: Escherichia coli ATCC 25922
[2] = system: Pseudomonas aeruginosa ATCC 27853
[3] = system: Xanthomonas axonopodis pv. glycines ISBF 327
[4] = system: Escherichia coli KCTC 1682
[5] = system: Staphylococcus aureus KCTC 3881
[6] = system: Salmonella typhimurium KCTC 1926
[7] = system: Acinetobacter baumannii CCARM 12005
[8] = system: Salmonella typhimurium CCARM 8009
[9] = system: Bacillus subtilis KCTC 1022
[10] = system: Staphylococcus aureus CCARM 3126
[11] = system: Staphylococcus aureus CCARM 3108
[12] = system: Pseudomonas aeruginosa CCARM 2095
[13] = system: Staphylococcus aureus KCTC 1621
[14] = system: Pseudomonas aeruginosa KCTC 2513
[15] = system: Acinetobacter baumannii CCARM 12036
[16] = system: Staphylococcus aureus CCARM 3090
[17] = system: Bacillus subtilis KCTC 1021
[18] = system: Staphylococcus epidermidis KCTC 1917
[19] = system: Bacillus subtilis KCTC 3068
[20] = system: Staphylococcus aureus CCARM 3114
[21] = system: Salmonella typhimurium CCARM 8003
[22] = system: Escherichia coli CCARM 1229
[23] = system: Staphylococcus aureus KCTC 1916
[24] = system: Escherichia coli KCTC 2571
[25] = system: Salmonella typhimurium CCARM 8007
[26] = system: Escherichia coli CCARM 1238
[27] = system: Staphylococcus aureus CCARM 3089
[28] = system: Acinetobacter baumannii CCARM 12037
[29] = system: Pseudomonas aeruginosa CCARM 2002
[30] = system: Pseudomonas aeruginosa KCTC 1637
[31] = system: Pseudomonas aeruginosa CCARM 2163
[32] = system: Pseudomonas aeruginosa KCTC 2004
[33] = system: Acinetobacter baumannii CCARM 12035
[34] = system: Pseudomonas aeruginosa CCARM 2003
[35] = system: Escherichia coli KCTC 2593
[36] = system: Staphylococcus aureus ATCC 33591
[37] = system: Candida albicans ATCC 200955
[38] = system: Enterococcus faecium ATCC 700221
[39] = system: Salmonella enterica subsp. enterica serovar Typhi DMST 22842
[40] = system: Staphylococcus epidermidis ATCC 12228
[41] = system: Staphylococcus aureus ATCC 25923

SMILES | MIC [1] | MIC [2] | MIC [4] | MIC [5] | MIC [6] | MIC [7] | MIC [8] | MIC [9] | MIC [10] | MIC [11] | MIC [12] | MIC [13] | MIC [14] | MIC [15] | MIC [16] | MIC [17] | MIC [18] | MIC [19] | MIC [20] | MIC [21] | also measured
CSCC[C@H](NC(=O)[C@H](Cc1ccccc1)NC(=O)CNC(=O)[C@H](Cc1ccccc1)NC(=O)[C@H](C)NC(=O)[C@H](CCCN=C(N)N)NC(=O)[C@H](CC(N)=O)NC(=O)[C@H](Cc1ccccc1)NC(=O)[C@H](CC(=O)O)NC(=O)[C@H](CCCCN)NC(=O)[C@H](Cc1ccccc1)NC(=O)[C@H](Cc1cnc[nH]1)NC(=O)[C@H](Cc1ccccc1)NC(=O)[C@H](CCC(N)=O)NC(=O)[C@H](CCCCN)NC(=O)[C@@H](N)Cc1ccccc1)C(=O)N[C@H](C(=O)N[C@@H](CCCN=C(N)N)C(=O)N[C@H](C(=O)N[C@@H](C)C(=O)N[C@@H](CC(C)C)C(=O)N[C@@H](CCC(N)=O)C(=O)N[C@@H](C)C(=O)N[C@@H](CCC(=O)O)C(=O)N[C@@H](CCCCN)C(=O)N[C@@H](CC(C)C)C(N)=O)C(C)C)[C@@H](C)O [FKQFHFKDFNRAFGFMTRVALQAEKL] | 40 µM (≈ 127 µg/mL) | 80 µM (≈ 254 µg/mL) | – | – | – | – | – | – | – | – | – | – | – | – | – | – | – | – | – | – | MIC [3]: ≥ 40 µM
CC[C@H](C)[C@H](NC(=O)CNC(=O)[C@H](CCCN=C(N)N)NC(=O)[C@H](Cc1ccccc1)NC(=O)[C@@H](NC(=O)[C@H](Cc1cnc[nH]1)NC(=O)[C@H](Cc1cnc[nH]1)NC(=O)[C@H](C)NC(=O)[C@@H](N)Cc1ccccc1)[C@@H](C)CC)C(=O)N[C@H](C(=O)N[C@@H](Cc1cnc[nH]1)C(=O)N[C@H](C(=O)NCC(=O)N[C@@H](CCCCN)C(=O)N[C@H](C(=O)N[C@H](C(=O)N[C@@H](Cc1cnc[nH]1)C(=O)N[C@@H](CCCN=C(N)N)C(=O)N[C@@H](CC(C)C)C(=O)N[C@H](C(=O)N[C@H](C(=O)NCC(=O)O)[C@@H](C)O)C(C)C)[C@@H](C)CC)[C@@H](C)O)C(C)C)C(C)C [FAHHIFRGIVHVGKTIHRLVTG] | – | – | 2 µM (≈ 4.99 µg/mL) | 2 µM (≈ 4.99 µg/mL) | 16 µM (≈ 39.9 µg/mL) | 4 µM (≈ 9.98 µg/mL) | 16 µM (≈ 39.9 µg/mL) | 1 µM (≈ 2.5 µg/mL) | 16 µM (≈ 39.9 µg/mL) | 16 µM (≈ 39.9 µg/mL) | 4 µM (≈ 9.98 µg/mL) | 4 µM (≈ 9.98 µg/mL) | 8 µM (≈ 20 µg/mL) | 4 µM (≈ 9.98 µg/mL) | 16 µM (≈ 39.9 µg/mL) | 8 µM (≈ 20 µg/mL) | 2 µM (≈ 4.99 µg/mL) | 4 µM (≈ 9.98 µg/mL) | 16 µM (≈ 39.9 µg/mL) | ≥ 32 µM | MIC [22]: 16 µM (≈ 39.9 µg/mL); MIC [23]: 1 µM (≈ 2.5 µg/mL); MIC [24]: 2 µM (≈ 4.99 µg/mL); MIC [25]: 16 µM (≈ 39.9 µg/mL); MIC [26]: 16 µM (≈ 39.9 µg/mL); MIC [27]: 16 µM (≈ 39.9 µg/mL); MIC [28]: 4 µM (≈ 9.98 µg/mL); MIC [29]: 4 µM (≈ 9.98 µg/mL); MIC [30]: 4 µM (≈ 9.98 µg/mL); MIC [31]: 4 µM (≈ 9.98 µg/mL); MIC [32]: 8 µM (≈ 20 µg/mL); MIC [33]: 4 µM (≈ 9.98 µg/mL); MIC [34]: 4 µM (≈ 9.98 µg/mL); MIC [35]: 2 µM (≈ 4.99 µg/mL)
CC[C@H](C)[C@H](NC(=O)[C@H](CCCCN)NC(=O)[C@H](CCCCN)NC(=O)[C@H](CC(C)C)NC(=O)[C@H](CC(C)C)NC(=O)CN)C(=O)N[C@@H](CCCCN)C(=O)N[C@@H](Cc1c[nH]c2ccccc12)C(=O)N[C@@H](CC(C)C)C(=O)N[C@@H](CC(C)C)C(N)=O [GLLKKIKWLL] | 12.5 µM (≈ 15.1 µg/mL) | 28.4 µM (≈ 34.4 µg/mL) | – | – | – | – | – | – | – | – | – | – | – | – | – | – | – | – | – | – | MIC [36]: 28.4 µM (≈ 34.4 µg/mL); MIC [37]: ≥ 47.4 µM; MIC [38]: 22.1 µM (≈ 26.8 µg/mL)
CC[C@H](C)[C@H](NC(=O)[C@H](Cc1ccccc1)NC(=O)[C@H](CCCCN)NC(=O)[C@H](CC(C)C)NC(=O)[C@H](CC(C)C)NC(=O)CN)C(=O)N[C@@H](CCCCN)C(=O)N[C@@H](Cc1c[nH]c2ccccc12)C(=O)N[C@@H](CC(C)C)C(=O)N[C@@H](CC(C)C)C(N)=O [GLLKFIKWLL] | 22.1 µM (≈ 27.2 µg/mL) | 256 µM (≈ 315 µg/mL) | – | – | – | – | – | – | – | – | – | – | – | – | – | – | – | – | – | – | MIC [36]: 7.4 µM (≈ 9.1 µg/mL); MIC [37]: ≥ 47.4 µM; MIC [38]: 0.8 µM (≈ 0.984 µg/mL)
CC(C)[C@H](NC(=O)CNC(=O)[C@@H](N)CC(N)=O)C(=O)N[C@@H](CCC(N)=O)C(=O)N1CCC[C@H]1C(=O)N[C@@H](CCCCN)C(=O)N[C@@H](Cc1ccc(O)cc1)C(=O)N[C@@H](CCCN=C(N)N)C(=O)N[C@@H](Cc1c[nH]c2ccccc12)C(=O)N[C@@H](Cc1c[nH]c2ccccc12)C(=O)N[C@@H](CCCN=C(N)N)C(=O)N[C@@H](Cc1c[nH]c2ccccc12)C(=O)N[C@@H](Cc1c[nH]c2ccccc12)C(=O)N[C@@H](CCCN=C(N)N)C(=O)N[C@@H](CCCN=C(N)N)C(=O)N[C@@H](Cc1c[nH]c2ccccc12)C(=O)N[C@@H](Cc1c[nH]c2ccccc12)C(=O)N[C@@H](Cc1c[nH]c2ccccc12)C(=O)N[C@@H](Cc1c[nH]c2ccccc12)C(N)=O [NGVQPKYRWWRWWRRWWWW] | > 31.2 µM | > 31.2 µM | – | – | – | – | – | – | – | – | – | – | – | – | – | – | – | – | – | – | MIC [39]: 31.2 µM (≈ 91 µg/mL); MIC [40]: 31.2 µM (≈ 91 µg/mL); MIC [41]: > 31.2 µM
CC[C@H](C)[C@H](NC(=O)CNC(=O)[C@H](CCCN=C(N)N)NC(=O)[C@H](Cc1ccccc1)NC(=O)[C@@H](NC(=O)[C@H](Cc1cnc[nH]1)NC(=O)[C@H](Cc1cnc[nH]1)NC(=O)[C@H](CCCCN)NC(=O)[C@@H](N)Cc1ccccc1)[C@@H](C)CC)C(=O)N[C@@H](CCCCN)C(=O)N[C@@H](Cc1cnc[nH]1)C(=O)N[C@H](C(=O)NCC(=O)N[C@@H](CCCCN)C(=O)N[C@H](C(=O)N[C@H](C(=O)N[C@@H](Cc1cnc[nH]1)C(=O)N[C@@H](CCCN=C(N)N)C(=O)N[C@@H](CC(C)C)C(=O)N[C@H](C(=O)N[C@H](C(=O)NCC(=O)O)[C@@H](C)O)C(C)C)[C@@H](C)CC)[C@@H](C)O)C(C)C [FKHHIFRGIKHVGKTIHRLVTG] | – | – | 1 µM (≈ 2.58 µg/mL) | 4 µM (≈ 10.3 µg/mL) | 2 µM (≈ 5.16 µg/mL) | 2 µM (≈ 5.16 µg/mL) | 8 µM (≈ 20.7 µg/mL) | 4 µM (≈ 10.3 µg/mL) | 8 µM (≈ 20.7 µg/mL) | 8 µM (≈ 20.7 µg/mL) | 2 µM (≈ 5.16 µg/mL) | 2 µM (≈ 5.16 µg/mL) | 8 µM (≈ 20.7 µg/mL) | 2 µM (≈ 5.16 µg/mL) | 8 µM (≈ 20.7 µg/mL) | 8 µM (≈ 20.7 µg/mL) | 4 µM (≈ 10.3 µg/mL) | 2 µM (≈ 5.16 µg/mL) | 8 µM (≈ 20.7 µg/mL) | 16 µM (≈ 41.3 µg/mL) | MIC [22]: 8 µM (≈ 20.7 µg/mL); MIC [23]: 4 µM (≈ 10.3 µg/mL); MIC [24]: 4 µM (≈ 10.3 µg/mL); MIC [25]: 8 µM (≈ 20.7 µg/mL); MIC [26]: 8 µM (≈ 20.7 µg/mL); MIC [27]: 8 µM (≈ 20.7 µg/mL); MIC [28]: 2 µM (≈ 5.16 µg/mL); MIC [29]: 2 µM (≈ 5.16 µg/mL); MIC [30]: 1 µM (≈ 2.58 µg/mL); MIC [31]: 2 µM (≈ 5.16 µg/mL); MIC [32]: 8 µM (≈ 20.7 µg/mL); MIC [33]: 2 µM (≈ 5.16 µg/mL); MIC [34]: 2 µM (≈ 5.16 µg/mL); MIC [35]: 4 µM (≈ 10.3 µg/mL)
